Results on 3 molecules are retold here after patent US20110028318A1, “HERBICIDAL COMPOUNDS BASED ON N-AZINYL-N'-PYRIDYLSULPHONYLUREAS” (Bayer CropScience AG, priority 2007, published 2011).

Series [1] has as its system Alopecurus myosuroides. The experiment in a line: Post-emergence herbicidal activity, ALOMY. In kind it is in vivo. The settings on record: dosage rate 80 g/ha, scored visually after approx. 3 weeks vs untreated controls. The method, then:
(§1) Seeds of monocotyledonous or dicotyledonous weed plants or crop plants are placed in sandy loam in wood fiber pots, covered with soil and grown in the greenhouse under good growth conditions. 2 to 3 weeks after sowing, the test plants are treated in the one-leaf stage. The compounds according to the invention, which are formulated as wettable powders (WP), are then sprayed onto the green plant parts in the form of an aqueous suspension or emulsion with a water application rate of 600 I/ha (converted) with addition of 0.2% of wetter. After the test plants have been left to stand in the greenhouse for approximately 3 weeks under optimal growth conditions, the activity of the preparation is scored visually in comparison with untreated controls (herbicidal activity in percent (%): 100% activity=plants have died, 0% activity=like control plants).

The test system of series [2] is Amaranthus retroflexus. The experiment in a line: Post-emergence herbicidal activity, AMARE. In kind it is in vivo. The settings on record: dosage rate 80 g/ha, scored visually after approx. 3 weeks vs untreated controls. Here is the method: as §1
In series [3] the test system is Viola tricolor. The experiment in a line: Post-emergence herbicidal activity, VIOTR. The settings on record: dosage rate 80 g/ha, scored visually after approx. 3 weeks vs untreated controls. In kind it is in vivo. Here is the method: as §1
The test system of series [4] is Alopecurus myosuroides. Briefly: Pre-emergence herbicidal activity, ALOMY. In kind it is in vivo. The settings on record: 80 g/ha, WP formulation, scored visually after approximately 3 weeks vs untreated controls (100% = plants have died). The text has this:
(§2) Seeds of monocotyledonous or dicotyledonous weed plants or crop plants are placed in sandy loam in wood fiber pots and covered with soil. The compounds according to the invention, which are formulated as wettable powders (WP) are then applied to the surface of the soil cover in the form of an aqueous suspension or emulsion with a water application rate of 600 I/ha (converted), with addition of 0.2% wetter. After the treatment, the pots are placed in the greenhouse and maintained under good growth conditions for the test plants. After approximately 3 weeks, the activity of the preparation is scored visually in comparison with untreated controls (herbicidal activity in percent (%): 100% activity=plants have died, 0% activity=like control plants).

For series [5], the system named is Abutilon theophrasti. Briefly: Post-emergence herbicidal activity, ABUTH. In kind it is in vivo. The settings on record: dosage rate 80 g/ha, scored visually after approx. 3 weeks vs untreated controls. Here is the method:
as §1

Series [6] relates to Matricaria inodora. Briefly: Pre-emergence herbicidal activity, MATIN. In kind it is in vivo. The settings on record: 80 g/ha, WP formulation, scored visually after approximately 3 weeks vs untreated controls (100% = plants have died).
From the text: as §2

For series [7], the system named is Stellaria media. The experiment in a line: Pre-emergence herbicidal activity, STEME. Type of series: in vivo. The settings on record: 80 g/ha, WP formulation, scored visually after approximately 3 weeks vs untreated controls (100% = plants have died).
From the text: as §2

The subject of series [8] is Lolium multiflorum. Briefly: Post-emergence herbicidal activity, LOLMU. Type of series: in vivo. The settings on record: dosage rate 80 g/ha, scored visually after approx. 3 weeks vs untreated controls. Here is the method:
as §1

For series [9], the system named is Pharbitis purpurea. Briefly: Post-emergence herbicidal activity, PHBPU. The settings on record: dosage rate 80 g/ha, scored visually after approx. 3 weeks vs untreated controls. Type of series: in vivo, Pharbitis/Ipomoea purpurea. Here is the method:
as §1

For series [10], the system named is Stellaria media. Briefly: Post-emergence herbicidal activity, STEME. The settings on record: dosage rate 80 g/ha, scored visually after approx. 3 weeks vs untreated controls. Type of series: in vivo. The method, then: as §1
The test system of series [11] is Echinochloa crus-galli. The experiment in a line: Post-emergence herbicidal activity, ECHCG. Type of series: in vivo. The settings on record: dosage rate 80 g/ha, scored visually after approx. 3 weeks vs untreated controls. The method, then: as §1
The nature of series [12]: logp. Type of series: physicochemical.

What is called logP is a log measure of how a compound divides between an organic and an aqueous phase. By melting point is commonly meant the temperature of the solid-liquid transition.

Consider `COc1cc(OC)nc(NC(=O)NS(=O)(=O)c2ncccc2C2=NOC(C(C)C)C2)n1` (stereo not drawn) [Ia-10], for which the “herbicidal activity ALOMY” value in series [1] stood at 90%. Besides, the “herbicidal activity AMARE” value in series [2] is given as 100%. Also, the “herbicidal activity VIOTR” value in [3] came out at 90%. For the same molecule, the “herbicidal activity in percent, ALOMY” value in series [4] is reported as 80%. In addition, in [5], the “herbicidal activity ABUTH” value was 90%. In addition, the “herbicidal activity in percent, MATIN” value in series [6] was 80%. The “herbicidal activity in percent, STEME” value in series [7] is recorded as 80%. The “herbicidal activity LOLMU” value in [8] was 90%. In series [9], the “herbicidal activity PHBPU” value amounted to 80%. In addition, in series [10], the “herbicidal activity STEME” value came out at 90%. In addition, in [11], the “herbicidal activity ECHCG” value is 100%.
As to `Cc1cc(C)nc(NC(=O)NS(=O)(=O)c2ncccc2C2=NOCC2)n1` [Ia-3], the “herbicidal activity ALOMY” value in series [1] amounted to 80%. Also, the “herbicidal activity AMARE” value in [2] is given as 100%. In addition, the “herbicidal activity VIOTR” value in [3] turned out to be 80%. For the same molecule, the “herbicidal activity in percent, ALOMY” value in [4] stood at 80%. For the same molecule, in [5], the “herbicidal activity ABUTH” value is reported as 90%. Besides, in series [6], the “herbicidal activity in percent, MATIN” value worked out at 80%. The “herbicidal activity in percent, STEME” value in series [7] is 80%. Moreover, in series [8], the “herbicidal activity LOLMU” value came to 80%. Besides, the “herbicidal activity PHBPU” value in series [9] is 90%. In addition, the “herbicidal activity STEME” value in series [10] turned out to be 90%. For the same molecule, in [11], the “herbicidal activity ECHCG” value stood at 90%.
Turning to `Clc1ncccc1C1=NOCC1` [XIa-1, 2-Chloro-3-(4,5-dihydroisoxazol-3-yl)pyridine], the melting point lay in the range of 183 to 185 °C. In series [12], this molecule showed a logP of 0.97.
